According to the supplement of paper PMC10307832:

How the values were obtained:
Assay in all cases: relative viability (nuclei count vs DMSO), 5 days (fraction); higher = more cells survive
[1] = compound: COc1cc(Nc2ncc(F)c(Nc3ccc4c(n3)NC(=O)C(C)(C)O4)n2)cc(OC)c1OC [R406] + CC1(C)CCC(c2ccc(Cl)cc2)=C(CN2CCN(c3ccc(C(=O)NS(=O)(=O)c4ccc(N[C@H](CCN5CCOCC5)CSc5ccccc5)c(S(=O)(=O)C(F)(F)F)c4)cc3)CC2)C1 [Navitoclax] (partner 0.5 µM)
Method in brief: (§1)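 Lung cancer cell lines in 1536-well plates were dosed by pin tool the day after seeding, either with one drug alone or with a fixed anchor-drug dose plus five library-drug doses (not always all listed) in √10 steps. After 5 days, cells were fixed and their nuclei stained in one step (final 0.05% Triton X-100, 1% formaldehyde, 1 ug/ml Hoechst), then counted on 4× images. Relative viability is the nuclei count in treated wells divided by that in vehicle wells. Values are medians of duplicate plates.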

[2] = compound: COc1cc(Nc2ncc(F)c(Nc3ccc4c(n3)NC(=O)C(C)(C)O4)n2)cc(OC)c1OC [R406] + CS(=O)(=O)CCNCc1ccc(-c2ccc3ncnc(Nc4ccc(OCc5cccc(F)c5)c(Cl)c4)c3c2)o1 [Lapatinib] (partner 2 µM)
Method in brief: as §1

[3] = compound: O=C(/C=C/c1cccnc1)NCCCCC1CCN(C(=O)c2ccccc2)CC1 [Daporinad] + CCNC(=O)c1noc(-c2cc(C(C)C)c(O)cc2O)c1-c1ccc(CN2CCOCC2)cc1 [Luminespib] (partner 0.01 µM)
Method in brief: as §1

[4] = compound: O=C(/C=C/c1cccnc1)NCCCCC1CCN(C(=O)c2ccccc2)CC1 [Daporinad] + Cc1nc(Nc2ncc(C(=O)Nc3c(C)cccc3Cl)s2)cc(N2CCN(CCO)CC2)n1 [Dasatinib] (partner 0.075 µM)
Method in brief: as §1

Cell Line | relative viability ([1]; first compound 0.08 µM) | relative viability ([1]; first compound 0.253 µM) | relative viability ([1]; first compound 0.8 µM) | relative viability ([1]; first compound 2.53 µM) | relative viability ([1]; first compound 8 µM) | relative viability ([2]; first compound 0.08 µM) | relative viability ([2]; first compound 0.253 µM) | relative viability ([2]; first compound 0.8 µM) | relative viability ([2]; first compound 2.53 µM) | relative viability ([2]; first compound 8 µM) | relative viability ([3]; first compound 0.0005 µM) | relative viability ([3]; first compound 0.001581 µM) | relative viability ([3]; first compound 0.005 µM) | relative viability ([3]; first compound 0.01581 µM) | relative viability ([4]; first compound 0.0005 µM) | relative viability ([4]; first compound 0.001581 µM) | relative viability ([4]; first compound 0.005 µM) | relative viability ([4]; first compound 0.01581 µM)
NCI-H2023 | 0.896 | 0.975 | 1.1 | 0.888 | 0.603 | 0.968 | 0.976 | 1.05 | 0.0633 | 0.189 | 0.727 | 0.759 | 0.918 | 0.717 | 0.504 | 0.711 | 0.631 | 0.72
COR-L 105 | 0.858 | 0.755 | 1.02 | 0.805 | 0.558 | 0.359 | 0.391 | 0.364 | 0.276 | 0.292 | 0.807 | 0.805 | 0.82 | 0.738 | 0.317 | 0.376 | 0.346 | 0.416
SK-LU-1 | 0.483 | 1.2 | 0.725 | 0.385 | 0.145 | 0.875 | 0.93 | 1.09 | 0.491 | 0.303 | 0.193 | 0.204 | 0.227 | 0.225 | 0.209 | 0.184 | 0.204 | 0.235
LXF-289 | 0.942 | 1.01 | 1 | 0.931 | 0.251 | 0.868 | 1.01 | 0.9 | 0.921 | 0.605 | 0.668 | 0.75 | 0.766 | 0.657 | 0.178 | 0.292 | 0.214 | 0.289
PC-3 [JPC-3] | 0.828 | 0.819 | 0.833 | 0.685 | 0.6 | 0.457 | 0.501 | 0.503 | 0.406 | 0.418 | 0.68 | 0.677 | 0.73 | 0.735 | 0.928 | 1.01 | 0.943 | 0.947
NCI-H1666 | 0.627 | 0.879 | 0.932 | 0.941 | 0.413 | 0.784 | 0.79 | 0.708 | 0.452 | 0.336 | 1.01 | 0.985 | 1.07 | 1.03 | 0.746 | 0.871 | 0.674 | 0.721
NCI-H2085 | 1.13 | 1.16 | 1.28 | 1.01 | 0.667 | 0.783 | 0.851 | 0.894 | 0.52 | 0.591 | 0.386 | 0.434 | 0.549 | 0.503 | 0.268 | 0.244 | 0.267 | 0.284
NCI-H1734 | 0.789 | 0.982 | 1.13 | 0.813 | 0.607 | 1.03 | 1.1 | 1.1 | 0.426 | 0.621 | 0.233 | 0.187 | 0.185 | 0.228 | 0.566 | 0.489 | 0.495 | 0.462
NCI-H2126 | 0.88 | 0.83 | 0.829 | 0.8 | 0.64 | 0.763 | 0.798 | 0.801 | 0.772 | 0.737 | 0.883 | 0.897 | 0.921 | 0.924 | 0.681 | 0.57 | 0.547 | 0.727
